Test results reported in patent US20260306460A1, “COMPOSITION FOR REMOVING AND INHIBITING SENESCENT CELLS, AND USES THEREOF” (LIFECEUTIX CO., LTD., priority 2023, published 2026).

What was measured:
senescent human cells = assay: Viability of doxorubicin-induced senescent human cells (CellTiter-Glo), Example 11; format: cell-based
Method: Cells in which senescence was induced by treatment with doxorubicin were treated with the test compound at designated concentrations and measured using the CellTiter-Glo Luminescent Cell Viability Assay (Promega).
After 3 days, cell viability was measured using CellTiter-Glo Luminescent Cell Viability Assay (Promega) or light microscopy.

SAMP8 mice = assay: Cognitive impairment in SAMP8 mice (p16 mRNA, Y maze), Example 28, Table 52; format: in vivo, mouse; details: for Spontaneous alternation: Y maze test, 8 minutes, untreated 48.4 (±27.3); for p16 mRNA: hippocampus, daily for 21 days, untreated 100%
Method: Twelve-week-old male SAMP8 mice (SLC), a cognitive impairment model, were acclimated to the experimental environment for one week and then randomly assigned to experimental and control groups. […] LX-2101 was mixed with 5% DMSO (Sigma) in PBS and administered intraperitoneally at a concentration of 10 mg/kg daily for 21 days. The control group received only the same volume of solution. After drug administration, the mice were tested in the Y maze test to analyze the degree of cognitive and memory improvement. The Y-maze test is a method to assess short-term memory-type spatial awareness. It is a Y-shaped enclosed maze made of black acrylic to the following specifications (40 cm in length, 8 cm in width, 13 cm in height, with each arm angled 120 degrees). Three arms are designated A, B, and C. A mouse is carefully placed on one arm and allowed to move freely for 8 minutes. The arm into which the mouse enters up to its tail is recorded in order. Each instance of entering each arm sequentially is awarded 1 point (actual alternation). Alternation behavior is defined as entering all arms without overlapping, and spontaneous alternation behavior is calculated using the following formula:
Spontaneous alternation behavior (%)=Actual alternation/Maximum alternation×100 • Maximum alternation: Total number of entries-2
After the behavioral evaluation, the mice were sacrificed, and RNA from the hippocampus region of the brain was extracted using the same method as Example 7-2 of WO2023-085787 A1, and qRT-PCR was performed using the synthesized cDNA.

[1] = tested on: doxorubicin-induced aged C57BL6J mice; assay: Thrombosis (Serpine1, Plau, TIMP1 mRNA, tail bleeding time) in doxorubicin-aged mice, Example 22-10, Table 39; format: in vivo, mouse; details: for Plau mRNA / Serpine1 mRNA / TIMP1 mRNA: qRT-PCR, doxorubicin-induced aged mice, amount after aging calculated as 100%; for Tail amputation bleeding time: tail incised 5 mm from the tip, saline 37° C., untreated 51 (±3.6)
Method: Eight-week-old male C57BL6J mice (KRIBB Laboratory Animal Resource Center) were acclimated to the experimental environment for one week. Afterwards, the anticancer agent doxorubicin was administered intraperitoneally at a concentration of 10 mg/kg, inducing aging for more than 10 days. The aging-induced mice were randomly assigned to experimental and control groups. LX-403 was mixed with a 10% ethanol solution of PEG400 and administered orally at a concentration of 25 mg/kg or intradermally at a concentration of 1 μM for 21 days. LX-1801 was mixed in distilled water with 4% DMSO, 30% PEG300, and 5% Tween80 and administered intradermally at a concentration of 0.4 μM daily for 21 days. LX-2001 was mixed in PBS and administered intradermally at a concentration of 2 μM daily for 21 days. LX-2002 was mixed in distilled water with 4% DMSO, 30% PEG300, and 5% Tween80 and administered intradermally at a concentration of 2 μM daily for 21 days. […] LX-2005 was mixed in distilled water with 4% DMSO, 30% PEG300, and 5% Tween80 and administered intradermally at a concentration of 90 μM daily for 21 days. LX-2007 was mixed in distilled water with 4% DMSO, 30% PEG300, and 5% Tween80 and administered intradermally at a concentration of 90 μM daily for 21 days. […] LX-3002 was mixed in distilled water with 4% DMSO, 30% PEG300, and 5% Tween80 and administered orally at a concentration of 10 mg/kg daily for 21 days. […] LX-5411 was mixed in 5% phosphate-buffered saline (PBS) and administered orally at a concentration of 10 mg/kg daily for 21 days or intradermally at a concentration of 3 μM. LX-5701 was mixed in PBS and administered orally at a concentration of 360 mg/kg daily for 21 days. LX-6807 was mixed in saline and administered intraperitoneally at a concentration of 1 mg/kg daily for 21 days. The control group received only the solution in the same volume. After the end of drug administration, the methods described in each example below were performed.
Using cDNA synthesized using the same method as in Example 7-6 of WO2023-085787 A1, qRT-PCR was performed and analyzed for the liver-produced senescence-associated secretory factor (SASP) and hemostasis-related factors like Serpine1 (PAI1), Plau (Urokinase), and TIMP1. To determine whether the treatment affects in vivo hemostasis, tail bleeding time was analyzed in mice induced to age by chemotherapy. Specifically, for tail bleeding analysis, mice were anesthetized, and the tail was incised 5 mm from the tip with a razor blade. The bleeding tail was then placed in a 15 ml test tube containing saline preheated to 37° C., and the time until blood flow stopped was measured. The bleeding time was determined when bleeding stopped for 10 seconds. […] The qPT-PCR results were compared with the amounts of each factor after aging was induced, calculating the amount of each factor as 100% and then treating it with the test compound.

[2] = tested on: bleomycin-induced pulmonary fibrosis C57BL6J mice; assay: Bleomycin pulmonary fibrosis in mice (p16, IL6, Col1a1 mRNA, alveoli size), Example 24-1, Table 47; format: in vivo, mouse; details: for Airspace enlargement: average size of alveoli, untreated 39.8 (±0.4); for Col1a1 mRNA / IL6 mRNA / p16 mRNA: lung, daily for 21 days, untreated 100%
Method: Eight-week-old male C57BL6J mice (KRIBB Laboratory Animal Resource Center) were acclimated to the experimental environment for one week. They were then administered the anticancer drug bleomyxin via intratracheal inhalation at a concentration of 2.5 mg/kg, inducing aging for more than 10 days. The aging-induced mice were randomly assigned to experimental and control groups. […] LX-3002 was mixed in distilled water with 4% DMSO, 30% PEG300, 5% tween80 and administered orally at a concentration of 10 mg/kg daily for 21 days. LX-5701 was mixed in PBS and administered orally at a concentration of 360 mg/kg daily for 21 days. LX-6807 was mixed in saline and administered intraperitoneally at a concentration of 1 mg/kg daily for 21 days. The control group received only the solution in the same volume. After the end of drug administration, mice were sacrificed in the same manner as in Example 7-2 of WO2023-085787 A1, RNA was extracted from lung tissue, and qRT-PCR (quantitative real-time PCR) was performed and analyzed using the synthesized cDNA. […] The amount of mRNA after aging was calculated as 100%, and the results after treatment with the test compound were compared. Furthermore, paraffin sections were stained with hematoxylin/eosin (H/E), and the size of alveoli was measured under an optical microscope to assess the degree of lung function impairment due to pulmonary fibrosis.

Molecule	induced death of cells (senescent human cells; senescent foreskin cells, 30 μM, 3 days)	Survival (senescent human cells; 1.1 μM, 0 μM = 100) [%]	Survival (senescent human cells; 10 μM, 0 μM = 100) [%]	Survival (senescent human cells; […], 0 μM = 100) [%]	viability at […] (senescent human cells; Homo sapiens, 3.3 μM, 0 μM = 100, read-out: Survival) [%]	Spontaneous alternation (SAMP8 mice)	p16 mRNA (SAMP8 mice)	Plau mRNA [1]	Serpine1 mRNA [1]	TIMP1 mRNA [1]	Tail amputation bleeding time [1]	Airspace enlargement [2]	Col1a1 mRNA [2]	IL6 mRNA [2]	p16 mRNA [2]
COC(=O)c1ccc([C@H]2c3[nH]c4ccccc4c3C[C@H](C(=O)OC)N2C(=O)CCl)cc1 [LX-405]	induced the death of most cells	–	–	–	–	–	–	–	–	–	–	–	–	–	–
S=C(N/N=C1\CCCc2cccnc21)N1CCN(c2ccccn2)CC1 [LX-801]	–	50.5	28.2	48.9	–	–	–	–	–	–	–	–	–	–	–
C[C@H]1[C@H](C)CC[C@]2(C(=O)O)CC[C@]3(C)C(=CC[C@@H]4[C@@]5(C)CC[C@H](O)C(C)(C)[C@@H]5CC[C@]43C)[C@H]12 [LX-2001, Ursolic acid]	–	–	–	–	0.8	–	–	–	–	–	–	–	–	–	–
CC1(C)CC[C@]2(NC(=O)C(C)(F)F)CC[C@]3(C)[C@H](C(=O)C=C4[C@@]5(C)C=C(C#N)C(=O)C(C)(C)[C@@H]5CC[C@]43C)[C@@H]2C1 [LX-2101, Omaveloxolone]	–	–	–	–	–	51.1 (±16.8) %	82 (±7.1) %	–	–	–	–	–	–	–	–
CCCC\C=C/C=C/C=C\CCCCCCCC(=O)O [LX-2707, Punicic acid]	–	–	–	–	–	54.5 (±2.0) %	75 (±3.3) %	65 (±1.8) %	52 (±3.5) %	46 (±1.5) %	80 (±4.3) sec	35.4 (±1.8) μm	70 (±6.5) %	38 (±4.1) %	43 (±4.2) %
O=C1C2CCN(CC2)C1CNC(=O)C(F)(F)F (stereo not shown) [LX-5701]	–	–	–	–	–	62.7 (±11.9) %	70 (±9.6) %	53 (±13.9) %	45 (±20.1) %	53 (±11.2) %	89 (±15.2) sec	30.1 (±2.7) μm	52 (±13.9) %	59 (±13.2) %	65 (±7.1) %
Cc1cccc([C@H](C)c2cnc[nH]2)c1C [LX-6807, Dexmedetomidine]	–	–	–	–	–	60.7 (±4.3) %	39 (±6.2) %	45 (±3.6) %	31 (±1.9) %	59 (±1.9) %	93 (±6.4) sec	33.8 (±3.6) μm	56 (±3.6) %	48 (±2.4) %	54 (±1.9) %
Tocofersolan [LX-3001]	–	74.8	–	1.1	–	50.6 (±3.6) %	64 (±2.8) %	69 (±2.2) %	76 (±2.1) %	73 (±3.1) %	72 (±2.6) sec	36.2 (±2.2) μm	64 (±3.9) %	51 (±3.6) %	65 (±3.8) %
